Measurements reported in patent publication US20170240522A1, “BENZOTHIOPHENE, BENZYLOXYBENZYLIDENE AND INDOLINE DERIVATIVES USEFUL FOR THE TREATMENT OF TUBERCULOSIS” (priority 2014, published 2017).

Experiments:
THP-1 macrophages = assay: Survival of Mtb-infected activated THP-1 macrophages; assay type: cell-based, human; details: activated THP-1, higher MOI, 10 μM
[1] = test system: Mtb culture filtrate proteins; assay: Secretome analysis of culture filtrate (LC/MS-MS); assay type: cell-based, Mycobacterium tuberculosis; details: 5 μM
Experimental: For the secretome analysis 10 μg of protein was reconstituted in 200 μl of 4 M Urea, 10% acetonitrile and buffered with Tris-HCl pH 8.5 to a final concentration of 30 mM. Proteins were reduced in 10 mM dithioerythritol (DTE) at 37° C. for 60 min. and then alkylated in 40 mM iodoacetamide at 37° C. for 45 min. Reactions were quenched by addition of DTE to a final concentration of 10 mM. First, protein digestion was performed using Lys-C (1:50 enzyme:protein) for 2 hours at 37° C. The lysates were then diluted 5-fold and a second digestion was performed overnight at 37° C. using mass spectrometry grade trypsin gold (1:50 enzyme:protein) and 10 mM CaCl2. Reactions were stopped by addition of 8 μl of pure formic acid and peptides were concentrated by vacuum centrifugation to a final volume of 70 μl.
• After digestions, samples were dimethyl-labeled as described previously (Boersema et al., 2009). […]
• Each SAX fraction was resuspended in 2% acetonitrile, 0.1% FA and loaded on a capillary pre-column (Magic AQ C18; 3 μm by 200 Å; 2 cm×100 μm ID). […] Relative quantification within different conditions was obtained calculating the significance B values for each of the identified proteins using Perseus (Cox et al., 2009).

Which “protection of THP-1 cells from Mtb-induced cell death” value (THP-1 macrophages) does the source give for `CSC(=S)N/N=C(\C)c1ccc(OCc2ccc(F)cc2F)cc1` [BBH7, N′-{1-[4-(2,4-Difluoro-benzyloxy)-phenyl]ethylidene}-hydrazinecarbodithioic acid methyl ester] here?
Its value is “protected THP-1 cells from Mtb-induced cell death”.

What about the “reduction of total culture filtrate protein” value [1] of the same molecule?
The value was 50%.

And the “abundance of ESX-5 substrates (EsxN/EsxM, PE25, PPE41) in culture filtrate” value ([1]; LC-MS/MS)?
Its value is “significantly reduced in abundance”.
